Assays:
[1] = tested on: EA reactive antibody (IgG) in infectious mononucleosis (IM) sera; experiment: ELISA, EA peptides with EBV infectious mononucleosis sera; assay type: binding, human; conditions: for ELISA result, peptides with and without extensions: EA positive EBV IM acute serum; for O.D.: 420 nm; for 50.1 ELISA (OD reading): IFA EA <10, OD >0.2 positive
Description: ELISA. The ELISA for measuring specific antibodies to p17, p50 or to the synthetic peptides was performed as previously described in detail (Luka et al., J. Immunol. Methods, 67:145-156, 1984). Aliquots of different antigen concentrations were diluted in 0.5M Na2CO3 buffer, pH 9.5, added to wells in polystyrene microtiter plates (Linbro) and the plates incubated overnight at 4° C. Following this incubation period, the plates were washed 5× with Tris-HCl, pH 7.4, containing 0.05% Tween 20, 50 mM NaCl and 100 mg per liter albumin (Sigma) and dried for 20 minutes at room temperature. The plates were screened with different anti-EA-R or EA-D antibody positive human sera and the monoclonal antibody to p17 or p50 to identify the optimal concentration of antigen to be used in the serological studies. Alkaline-phosphatase-labelled goat anti-human IgG (Sigma) or goat anti-mouse IgG (Sigma) was used as the indicator system.
For the testing of human sera for antibodies to native p17, p50 or to the synthetic peptides, sera were diluted 1:10 in ELISA buffer, added in 0.1 ml volumes to wells coated with optimal concentrations of antigen and the plates were incubated for 60 minutes at room temperature. After 4 washes with ELISA buffer, 100 μl of alkaline phosphatase-labelled goat anti-human IgG in ELISA buffer were added to each well and the plates were incubated at room temperature for 1 hour. Following four more washes in buffer, the enzyme reaction was performed by dissolving 1 mg per ml of Sigma alkaline phosphatase substrate in 1M diethanolamine buffer, pH 10.4, containing 1 mM MgCl2 and 0.1 mM ZnCl2, and 100 μl of the mixture was then added to each well. The reaction was allowed to proceed for 30 minutes at 37° C. and then the plates were screened directly with a microplate reader, TITERTEK MULTISKAN MC (Flow), at 420 nm. Readings above 0.1 which was 2× the background noted with antibody-negative sera were considered positive reactions.
When the entire 50.10 peptide was tested with 1M sera, 24/32 or 75% of the sera contained EA-D reactive antibody (IgG) (Table 4).
Serological reactivity of EA peptides p17.1 and p50.1 which contained additional amino acids on their amino and carboxy termini was tested on EBV IM acute sera which was EA positive. The ELISA results shown in Table 5 indicate that the additional amino acids improved reactivity for both EA peptides.
Immunofluorescence assays (IFA) were performed as described by Henle, et al. (Int. J. Cancer, 8:272-282, 1971). Western blot analysis was done by methods commonly used in the art (See for example, Coligan, et al., Current Protocols in Immunology, Wiley Interscience, 1991, Unit 12). Samples of EBV-infected cell lysates (P3HR-1) were tested with human whole antiserum from positive humans (Pearson, et al., Virology, 160:151-161, 1987). A comparison was made between EA serology by IFA, using the EA-D 50.1 peptide antisera, and ELISA serology using 50.1 peptide (see Example 2).

[2] = tested on: antibodies to peptides 50.10 (EA-D) and 17.1 (EA-R) in sequential sera; experiment: IgG ELISA on sequential sera of a patient with acute infectious mononucleosis; assay type: binding, human; conditions: sera at 1.20 dilution, (+) >0.25
Description: The early antigen D-R transition was followed in a patient during a course of acute infectious mononucleosis. Antibodies to peptides 50.10 (EA-D) and 17.1 (EA-R) were detected by ELISAs on specimens collected over a six month duration. […] Therefore, the peptides of the invention are useful for monitoring the course of EBV-associated disease in a patient.

[3] = 32 IM sera, values >0.5 positive (O.D. 420 nm)

Sequence: KQKHPKKVKQAFNPL [p50.10, synthetic peptide from 50 Kd early antigen (EA-D) region of EBV]
- % Positive [1, 3]: 75%
- IM sera positive / tested [1, 3]: 24/32
- ELISA result, peptides with and without extensions ([1]; sample no. 2241): 0.673
- ELISA result, peptides with and without extensions ([1]; sample no. 12498): 0.342
- ELISA result, peptides with and without extensions ([1]; sample no. 12836): 0.722
- SCORE ([1]; IM serum sample no. 2241): + (Values >0.5 were considered positive (O.D. readings at 420 nm).)
- SCORE ([1]; IM serum sample no. 11984): + (Values >0.5 were considered positive (O.D. readings at 420 nm).)
- O.D. ([1]; IM serum sample no. 11984): 0.722
- SCORE ([1]; IM serum sample no. 12005): − (Values >0.5 were considered positive (O.D. readings at 420 nm).)
- O.D. ([1]; IM serum sample no. 12005): 0.441
- SCORE ([1]; IM serum sample no. 12288): + (Values >0.5 were considered positive (O.D. readings at 420 nm).)
- O.D. ([1]; IM serum sample no. 12288): 0.610
- SCORE ([1]; IM serum sample no. 12407): + (Values >0.5 were considered positive (O.D. readings at 420 nm).)
- O.D. ([1]; IM serum sample no. 12407): 0.751
- SCORE ([1]; IM serum sample no. 12409): + (Values >0.5 were considered positive (O.D. readings at 420 nm).)
- O.D. ([1]; IM serum sample no. 12409): 0.609
- SCORE ([1]; IM serum sample no. 12418): − (Values >0.5 were considered positive (O.D. readings at 420 nm).)
- O.D. ([1]; IM serum sample no. 12418): 0.382
- SCORE ([1]; IM serum sample no. 12498): − (Values >0.5 were considered positive (O.D. readings at 420 nm).)
- SCORE ([1]; IM serum sample no. 12502): − (Values >0.5 were considered positive (O.D. readings at 420 nm).)
- O.D. ([1]; IM serum sample no. 12502): 0.270
- SCORE ([1]; IM serum sample no. 12587): + (Values >0.5 were considered positive (O.D. readings at 420 nm).)
- O.D. ([1]; IM serum sample no. 12587): 0.890
- SCORE ([1]; IM serum sample no. 12600): − (Values >0.5 were considered positive (O.D. readings at 420 nm).)
- O.D. ([1]; IM serum sample no. 12600): 0.323
- SCORE ([1]; IM serum sample no. 12611): − (Values >0.5 were considered positive (O.D. readings at 420 nm).)
- O.D. ([1]; IM serum sample no. 12611): 0.436
- SCORE ([1]; IM serum sample no. 12801): + (Values >0.5 were considered positive (O.D. readings at 420 nm).)
- O.D. ([1]; IM serum sample no. 12801): 0.605
- SCORE ([1]; IM serum sample no. 12828): + (Values >0.5 were considered positive (O.D. readings at 420 nm).)
- O.D. ([1]; IM serum sample no. 12828): 0.895
- SCORE ([1]; IM serum sample no. 12829): + (Values >0.5 were considered positive (O.D. readings at 420 nm).)
- O.D. ([1]; IM serum sample no. 12829): 0.652
- SCORE ([1]; IM serum sample no. 12836): + (Values >0.5 were considered positive (O.D. readings at 420 nm).)
- SCORE ([1]; IM serum sample no. 12837): + (Values >0.5 were considered positive (O.D. readings at 420 nm).)
- O.D. ([1]; IM serum sample no. 12837): 1.491
- SCORE ([1]; IM serum sample no. 12840): + (Values >0.5 were considered positive (O.D. readings at 420 nm).)
- O.D. ([1]; IM serum sample no. 12840): 0.723
- SCORE ([1]; IM serum sample no. 12888): + (Values >0.5 were considered positive (O.D. readings at 420 nm).)
- O.D. ([1]; IM serum sample no. 12888): 0.847
- SCORE ([1]; IM serum sample no. 12889): + (Values >0.5 were considered positive (O.D. readings at 420 nm).)
- O.D. ([1]; IM serum sample no. 12889): 1.184
- SCORE ([1]; IM serum sample no. 12892): + (Values >0.5 were considered positive (O.D. readings at 420 nm).)
- O.D. ([1]; IM serum sample no. 12892): 0.634
- SCORE ([1]; IM serum sample no. 12893): + (Values >0.5 were considered positive (O.D. readings at 420 nm).)
- O.D. ([1]; IM serum sample no. 12893): 0.626
- SCORE ([1]; IM serum sample no. 12899): + (Values >0.5 were considered positive (O.D. readings at 420 nm).)
- O.D. ([1]; IM serum sample no. 12899): 0.895
- SCORE ([1]; IM serum sample no. 12900): − (Values >0.5 were considered positive (O.D. readings at 420 nm).)
- O.D. ([1]; IM serum sample no. 12900): 0.498
- SCORE ([1]; IM serum sample no. 13075): − (Values >0.5 were considered positive (O.D. readings at 420 nm).)
- O.D. ([1]; IM serum sample no. 13075): 0.252
- SCORE ([1]; IM serum sample no. 13419): + (Values >0.5 were considered positive (O.D. readings at 420 nm).)
- O.D. ([1]; IM serum sample no. 13419): 0.678
- SCORE ([1]; IM serum sample no. 13637): + (Values >0.5 were considered positive (O.D. readings at 420 nm).)
- O.D. ([1]; IM serum sample no. 13637): 0.886
- SCORE ([1]; IM serum sample no. 13769): + (Values >0.5 were considered positive (O.D. readings at 420 nm).)
- O.D. ([1]; IM serum sample no. 13769): 1.307
- SCORE ([1]; IM serum sample no. 13929): + (Values >0.5 were considered positive (O.D. readings at 420 nm).)
- O.D. ([1]; IM serum sample no. 13929): 1.031
- SCORE ([1]; IM serum sample no. 14043): + (Values >0.5 were considered positive (O.D. readings at 420 nm).)
- O.D. ([1]; IM serum sample no. 14043): 0.631
- SCORE ([1]; IM serum sample no. 14128): + (Values >0.5 were considered positive (O.D. readings at 420 nm).)
- O.D. ([1]; IM serum sample no. 14128): 0.693
- SCORE ([1]; IM serum sample no. 14131): + (Values >0.5 were considered positive (O.D. readings at 420 nm).)
- O.D. ([1]; IM serum sample no. 14131): 0.530
- 50.1 ELISA (OD reading) ([1]; acute EBV IM sample 12502, diluted 1:10, EA-D Western blot positive): 0.409
- 50.1 ELISA (OD reading) ([1]; acute EBV IM sample 12840, diluted 1:10, EA-D Western blot positive): 0.257
- 50.1 ELISA (OD reading) ([1]; acute EBV IM sample 13769, diluted 1:10, EA-D Western blot positive): 1.034
- IgG ELISA O.D. reading ([2]; serum no. 9817, May 26, 1988): 0.104
- IgG ELISA O.D. reading ([2]; serum no. 9820, May 31, 1988): 0.094
- IgG ELISA O.D. reading ([2]; serum no. 9829, Jun. 07, 1988): 0.120
- IgG ELISA O.D. reading ([2]; serum no. 9941, Jun. 20, 1988): 0.147
- IgG ELISA O.D. reading ([2]; serum no. 9983, Jun. 27, 1988): 0.817
- IgG ELISA O.D. reading ([2]; serum no. 10064, Jul. 18, 1988): 0.821
- IgG ELISA O.D. reading ([2]; serum no. 10237, Aug. 29, 1988): 0.561
- IgG ELISA O.D. reading ([2]; serum no. 10271, Sep. 20, 1988): 0.100
- IgG ELISA O.D. reading ([2]; serum no. 10488, Oct. 21, 1988): 0.095
- IgG ELISA O.D. reading ([2]; serum no. 10546, Nov. 15, 1988): 0.140

— patent publication US7988972B2, “Immunoreactive peptides from Epstein-Barr virus” (Ortho-Clinical Diagnostics, Inc., priority 1993, dated 2011)
